Test results taken from patent US4994460A, “Agents for treatment of brain ischemia” (Bristol-Myers Squibb Co., priority 1990, dated 1991).
Structures can show the parent of a compound that is named as a salt. Where two headings read alike, the source gives them in different places.

Key:
[1] = system: hypoxia-induced death; test: Anoxic Nitrogen Test in Rats (survival after 1 min pure N2); assay type: in vivo, male Sprague-Dawley rats; conditions: Rattus norvegicus; for ED50: anoxic nitrogen test, 2 hr observation, 95% confidence limits in brackets, read-out: ED50 (19/20 C.L); for responders at 80 mg/kg: 80 mg/kg ip
From the text: Most specifically, administration of the compounds of Formula I results in protecting against hypoxia-induced death in an anoxic nitrogen test in rats. This particular test identifies the neuro-protective effects of substances against lethal brain damages produced by a lack of oxygen consumption (anoxia). In this test procedure, control animals exposed for one minute to a pure nitrogen atmosphere will expire because of respiratory failure caused by irreversible damage to the brain respiratory center.
The animals utilized are male Sprague-Dawley rats (200-240 grams) housed four animals per cage in a normal controlled environment with unlimited access to food and water. Usually there are 8 animals per dose, however, 4 animals can be employed to obtain an initial impression of a compound's activity. Animals surviving the anoxic insult are sacrificed via CO2 inhalation following completion of the observation session (2 hr).
[…] The anoxic episode consists of placing up to 4 animals in the sealed test chamber (10" l×10" w×6" h) continuously flushed with pure N2 (4.5 grade) at a flow rate of 3 SCFM for 1 min. Animals are then promptly removed to normal atmosphere and observed for the 2 hour time period. Typically, animals become disoriented within 15 sec which leads into convulsions at 30 to 35 sec after which they remain motionless.
In spite of the fact that after the N2 exposure the heart is still beating, all control animals fail to gasp when removed from the chamber and usually expire within 3 minutes. Drug treated animals, however, still gasp or start gasping after being removed which is a good indication if an animal will survive the N2 exposure (1).
Results are recorded as: [formula] and are statistically evaluated using the Finney Dose Response program for determination of the ED50 and its corresponding 95% confidence limits.
Compounds of the present invention were rated at each dose level tested using the following rating scale:
+=weak activity (up to 25% survival)
++=moderate activity (25-50% survival)
+++=good activity (51-75% survival)
++++=very good activity (76-100%)

[2] = Wauquier et al., Drug Development Research 8/373-380 (1986); cited from earlier work
[3] = system: animal models of stroke and brain infarction; conditions: Gotti et al., JPET 247/3, 1211-1221 (1988); cited from earlier work
[4] = ip, Table 2, 40 mg/kg ip, read-out: Rating (survival)
[5] = ip, Table 2, read-out: Rating (survival)
[6] = ip, Table 3, 40 mg/kg i.p. 60 minutes prior to anoxia testing, read-out: Anti-ischemic Rating
[7] = ip, 40 mg/kg ip, read-out: Anti-ischemic Rating

C[C@]12N[C@H](Cc3ccccc31)c1ccccc12 [(+)MK-801, reference compound]
ED50 ([1]; ip): 3.1 mg/kg

Fc1ccc(SCCCN2CCN(c3ncc(F)cn3)CC2)cc1 [Example 10, 1-[3-(4-Fluorophenylthio)propyl]-4-(5-fluoro-2-pyrimidinyl) piperazine]
responders at 40 mg/kg ([1]; Table 2, "^ 40^a" mg/kg ip, given 60 minutes prior to anoxia testing, read-out: Rating (survival)): < 25%

Fc1cnc(N2CCN(CCCC3OCCO3)CC2)nc1 [Example 11, 1-[3-(1,3-dioxolan-2-yl)propyl]-4-(5-Fluoro-2-pyrimidinyl) piperazine]
responders at 40 mg/kg [1, 4]: < 25%

O=C(CCCN1CCN(c2ncc(F)cn2)CC1)c1cccs1 [Example 12, 1-(2-Thienyl)-4-[4-(5-fluoro-2-pyrimidinyl)-1-piperazinyl]butanone]
responders at 40 mg/kg [1, 4]: < 25%

O=C(CCCN1CCN(c2ncc(F)cn2)CC1)c1ccc(F)c2ccccc12 [Example 13, 1-(4-Fluoronaphth-1-yl)-4-[4-(5-fluoro-2-pyrimidinyl)-1-piperazinyl]butanon]
responders at 40 mg/kg [1, 4]: 25 to 50%
responders at 80 mg/kg [1, 5]: 76 to 100%

CC(=O)NC(CCCN1CCN(c2ncc(F)cn2)CC1)c1ccc(F)cc1 (centres unmarked) [Example 18, 1-[4-Acetamido-4-(4-fluorophenyl)butyl]-4-(5-fluoro-2-pyrimidinyl)piperazine monohydrochloride]
responders at 40 mg/kg [1, 4]: < 25%

O=C(NC(CCCN1CCN(c2ncc(F)cn2)CC1)c1ccc(F)cc1)c1ccc(F)cc1 (centres unmarked) [Example 19, 1-[4-(4-Fluorobenzamido)-4-(4-fluorophenyl)butyl]-4-(5-fluoro-2-pyrimidinyl)piperazine]
responders at 40 mg/kg [1, 4]: 76 to 100%

O=S(=O)(NC(CCCN1CCN(c2ncc(F)cn2)CC1)c1ccc(F)cc1)c1ccc(F)cc1 (centres unmarked) [Example 20, 1-[4-(4-Fluorophenyl)-4-(4-fluorophenylsulfonamido)butyl]-4-(5-fluoro-2-pyrimidinyl)piperazine]
responders at 80 mg/kg [1, 5]: 76 to 100%

O=S(=O)(CCCN1CCN(c2ncc(F)cn2)CC1)c1ccc(F)cc1 [Example 21, 1-[3-(4-Fluorophenylsulfonyl)propyl]-4-(5-fluoro-2-pyrimidinyl)piperazine]
responders at 40 mg/kg [1, 4]: < 25%

OC(CCCN1CCN(c2ncc(F)cn2)CC1)C1CCCCC1 (centres unmarked) [Example 22, 1-Cyclohexyl-4-[4-(5-fluoro-2-pyrimidinyl)-1-piperazinyl]butanol]
responders at 80 mg/kg [1, 5]: 51 to 75%

OC(CCCN1CCN(c2ncc(F)cn2)CC1)c1ccc(F)c2ccccc12 (centres unmarked) [Example 23, 1-(4-Fluoronaphth-1-yl)-4-[4-(5-fluoro-2-pyrimidinyl)-1-piperazinyl]butanol]
responders at 100 mg/kg ([1]; ip, Table 2, 100 mg/kg ip, read-out: Rating (survival)): 76 to 100%

O=C(NC(CCCN1CCN(c2ncc(F)cn2)CC1)c1ccc(F)c2ccccc12)c1ccc(F)cc1 (centres unmarked) [Example 26]
responders at 40 mg/kg [1, 6]: 25 to 50%

Fc1cnc(N2CCN(CCCCc3ccc(F)c4ccccc34)CC2)nc1 [Example 28]
responders at 40 mg/kg [1, 6]: 51 to 75%

O=S(=O)(NC(CCCN1CCN(c2ncc(F)cn2)CC1)C1CCCCC1)c1ccc(F)cc1 (centres unmarked) [Example 30]
responders at 40 mg/kg [1, 6]: 25 to 50%

Fc1cnc(N2CCN(CCCCC3CCCCC3)CC2)nc1 [Example 31]
responders at 40 mg/kg [1, 6]: 25 to 50%

OC(CCCN1CCN(c2ncc(F)cn2)CC1)(c1ccc(F)cc1)C1CCCCC1 (centres unmarked) [Example 37, 1-Cyclohexyl-1-(4-fluorophenyl)-4-(4-(5-fluoro-2-pyrimidinyl)-1-piperazinyl)-1-butanol]
responders at 40 mg/kg [1, 7]: 51 to 75%

O=C(OC(CCCN1CCN(c2ncc(F)cn2)CC1)c1ccc(F)cc1)c1ccc(F)cc1 (centres unmarked) [Example 39, 1-(4-Fluorophenyl)-4-(4-(5-fluoro-2-pyrimidinyl)-1-piperazinyl)-1-butyl 4-fluorobenzoate hydrochloride]
responders at 40 mg/kg [1, 7]: 51 to 75%

[N-]=[N+]=NC(CCCN1CCN(c2ncc(F)cn2)CC1)c1ccc(F)c2ccccc12 (centres unmarked) [Example 40, 1-(4-Azido-4-(4-fluoro-1-naphthyl)-1-butyl)-4-(5-fluoro-2-pyrimidinyl)piperazine monohydrochloride]
responders at 40 mg/kg [1, 7]: 25 to 50%

NC(CCCN1CCN(c2ncc(F)cn2)CC1)c1ccc(F)c2ccccc12 (centres unmarked) [Example 41, 1-(4-Fluoro-1-naphthyl)-4-(4-(5-fluoro-2-pyrimidinyl)-1-piperazinyl) butylamine hydrochloride]
responders at 40 mg/kg [1, 7]: 76 to 100%

COC(CCCN1CCN(c2ncc(F)cn2)CC1)c1ccc(F)cc1 (centres unmarked) [Example 42, 1-[4-(4-Fluorophenyl)-4-methoxybutyl]-4-(5-fluoropyrimidin-2-yl) piperazine hydrochloride]
responders at 40 mg/kg [1, 7]: 25 to 50%

O=C(NC(CCCN1CCN(c2ncc(F)cn2)CC1)c1ccc(F)cc1)c1ccccc1 (centres unmarked) [Example 43]
responders at 40 mg/kg [1, 6]: 25 to 50%

O=C(NC(CCCN1CCN(c2ncc(F)cn2)CC1)c1ccc(F)cc1)c1ccc(F)c2ccccc12 (centres unmarked) [Example 44]
responders at 40 mg/kg [1, 6]: 25 to 50%

O=S(=O)(NC(CCCN1CCN(c2ncc(F)cn2)CC1)c1ccc(F)c2ccccc12)c1ccc(F)cc1 (centres unmarked) [Example 45]
responders at 40 mg/kg [1, 6]: < 25%

O=C(OC(CCCN1CCN(c2ncc(F)cn2)CC1)c1ccc(F)cc1)c1ccccc1 (centres unmarked) [Example 46]
responders at 40 mg/kg [1, 6]: 25 to 50%

Fc1ccc(CCN2CCN(c3ncc(F)cn3)CC2)cc1 [Example 47]
responders at 40 mg/kg [1, 6]: < 25%

O=C(CCCN1CCN(c2ncc(F)cn2)CC1)C1CCCCC1 [Example 48]
responders at 40 mg/kg [1, 6]: 76 to 100%

O=C(NC(CCCN1CCN(c2ncc(F)cn2)CC1)C1CCCCC1)c1ccc(F)cc1 (centres unmarked) [Example 49]
responders at 40 mg/kg [1, 6]: < 25%

CN(c1nc2ccccc2s1)C1CCN(CC(O)COc2ccc(F)cc2)CC1 (centres unmarked) [Sabeluzole]
ED50 ([1]; ip): 4.7 mg/kg
anticonvulsant properties [2]: anticonvulsant properties
antihypoxic activity [2]: potent antihypoxic agent

CC(C(O)c1ccc(O)cc1)N1CCC(Cc2ccccc2)CC1 (centres unmarked) [ifenprodil]
tissue sparing [3]: effective in tissue sparing
